In paper PMC4444337 (PLoS ONE, 2015):
Values joined by “and” are separate entries in the source; they are usually repeats but may differ in a detail not shown here. Equal values may be shown once.

How the values were obtained:
[1] = Safety analysis: clinical symptoms, blood counts, serum chemistry; type: in vivo, African green monkeys; details: compound treated vs vehicle treated groups
Description: The animals were monitored for clinical symptoms such as body temperature changes indicating a fever, signs of a cold, runny nose, sneezing, loss of appetite, and body weight. Blood counts and serum chemistry were assessed every second day. The safety findings were compared between the vehicle groups and the compound groups, to identify possible compound related adverse events.

[2] = test system: RSV; details: cited from earlier work
[3] = test system: RSV subgroup A strain A2; assay: Lung histopathology (inflammation) in RSV-infected animals; type: in vivo, African green monkeys
Description: Tissues (administration site, heart, liver, lung, pancreas, skeletal muscle and trachea) were fixed in 10% phosphate-buffered formalin, paraffin-embedded, sectioned at 5 μm, stained with hematoxylin-eosin (H&E) and evaluated microscopically. For the lung, histological examination was performed on the right lung only, the left lung lobe was sampled for bioanalytical purposes. At tissue trimming, representative cross sections were taken from the cranial, mid and caudal lung lobe in all animals including the central part (with large bronchus) and the peripheral part. Three lung sections per animal (cranial, mid and caudal lobe) with two samples each (central and peripheral) were evaluated for each animal. To facilitate comparison between groups, a general overall score for inflammation was given for each lung section. Mean inflammatory scores were determined for each animal (mean of 3 lung lobes) and per dose group (S2 Fig).
The necropsy was performed at day 13 for Study 1 and at Day 15 for Study 2. Before necropsy, a sample for complete blood count and plasma sample was taken. Euthanasia procedures adhered to the current Report of the American Veterinary Medical Association Panel on Euthanasia. The anesthesia was performed with a combination of ketamine hydrochloride (7–15 mg/kg) and either acetylpromazine maleate (acepromazine) (0.55 mg/kg) or xylanin (Rompun) (0.6 mg/kg) followed by exsanguinations via the femoral vein. The blood taken was recorded. Thereafter, an injection of 390 mg/kg sodium pentobarbital intravenously was given. Death was defined as the cessation of respiration and of heartbeat. The necropsy was performed according to BIOQUAL SOPs and a board-certified veterinary pathologist from the Charles River Laboratories, Pathology Associates Division (PAI) was present at necropsy.

[4] = test system: RSV subgroup A strain A2; assay: RSV viral load (qRT-PCR, RSV-A F gene) in BALF/throat after RSV A2 challenge; type: in vivo, African green monkeys; details: for Peak log VL (Median) in BALF: qRT-PCR
Description: In Study 1 all animals were followed until day 13 post-inoculation, when the necropsy took place.
In Study 2 all animals were followed until day 15 post-inoculation, when the necropsy took place.
Bronchoalveolar lavage fluid (BALF), nasal and throat swabs and blood samples were collected every 2 days from day 1 postinfection up to day 11 (study 1) and day 13 (study 2). For BALF collection, monkeys were sedated with […] (0.02–0.05 mg/kg) administered intramuscularly to allow passage of sterile laryngoscope and endotracheal tube. BAL was performed by laryngoscopy by inserting a shortened Kendall Sovereign feeding tube and urethral catheter through the endotracheal tube and approximately 10 mL of phosphate buffer saline (10 mL, pH 7.4) was instilled and gently suctioned back into the syringe promptly to recover approximately 5–7 mL of BAL in the syringe. Later, the adjustment of the dilution was done based on urea and protein concentration. White blood cell (WBC) count from BALF was analyzed using automated blood analysis instrumentation (Antech Diagnostics, Lake Success, NY, USA).
All animals were challenged with 1.5mL of 1 × 10^4 pfu/mL RSV subgroup A—strain A2 virus intranasally (i.n.) and intratracheally (i.t.) on day 0. […] The virus was thawed at room temperature and immediately put on ice.
For each inoculation, 1.5 mL were aspirated with a 3 mL syringe. After being anesthetized with 10 mg/mL ketamine, the animals were placed in dorsal recumbency. 0.25 mL of the virus was instilled drop-by-drop into each nostril and allowed to absorb for 20 sec. Once the absorption was complete, a Kendall Sovereign Feeding Tube and Urethral Catheter, Size 5 Fr, was trimmed about one inch on each side and inserted intratracheally using a laryngoscope. Once in place, 1mL of virus was instilled and flushed into the trachea with 7 mL of air.
RNA was extracted using a previously described protocol.
RSV was quantified using one-Step RT-PCR Master Mix reagents (Applied Bio systems, USA). Amplification and detection were performed in a ABI PRISM 7700 Sequence Detection System (Applied Biosystems, USA) under the following conditions: an initial reverse transcription at 48°C for 30 minutes, followed by PCR activation at 95°C for 10minutes and 45 cycles of amplification (15 sec at 95°C and 1minutes at 60°C).
The IEC-B assay was run as control. The viral load (VL) was expressed as RSV A-F copy numbers and transformed in Δ log10 values. The limit of detection was 10 copies of RSV F gene. The antiviral effect was calculated as differences between peak VL and area under the curve (AUC) VL based on Δ log10 RSV from different groups.

[5] = test system: IL8; assay: IL8 in BALF (Luminex) after RSV challenge; type: in vivo, African green monkeys; details: both studies
Description: The following monkey-specific cytokines were determined in BALF using a Luminex bead analysis according to the manufacturer's protocol: Interleukins (IL)-1b, IL-2, IL-4, IL-5, IL-6, IL-8, IL-10, Interferons (IFN)γ, IFNα, Tumor necrosis factor (TNF)α, Regulated on Activation, Normal T Cell Expressed and Secreted (RANTES), and Macrophage inflammatory protein (MIP)-1α. The non-human primate Luminex beads for IFNγ, IFNα, and IL-10 were provided by Texas Biomedical Research Institute (Texas, USA). The beads for the remaining cytokines were obtained from Millipore (Billerica, MA, USA). The samples for cytokine determination were run in duplicates. Human cytokine standards were used for standard curves and for determination of the lower limit of detection for individual cytokines. The results were read using a Luminex 100 System (Texas, USA).

[6] = test system: RSV; parameters: method as in PMID 21148224, PMID 17722899; details: single administration, cited from earlier work
[7] = test system: RSV; parameters: method as in PMID 21148224; details: slow single bolus injection; cited from earlier work
[8] = test system: RSV-A virus; details: read-out: EC50 on Hep2 cells, for RSV-A virus; cited from earlier work
[9] = test system: RSV; parameters: method as in PMID 19707346, PMID 9359721; details: cotton rat model; cited from earlier work
[10] = test system: RSV; parameters: method as in PMID 19707346, PMID 9359721; details: pediatric patients; cited from earlier work

Compound: Cc1ccc(CCCO)c(NCc2ccc3nc(NCCCN4CCOCC4)n(Cc4nc(C)ccc4O)c3c2)c1 [TMC353121]
- Drug related adverse events (clinical symptoms, blood counts, serum chemistry) [1]: no drug related adverse events were observed
- pEC50 (anti-RSV activity) [2]: 9.9
- Lung histopathology: improvement ([3]; Study 1, Tx50 and Px50 groups): No improvement on lung histopathology
- Lung histopathology: inflammatory changes ([3]; Study 2, Px5 group (as vehicle control), slight to marked degree): very pronounced (inflammatory) changes
- Lung histopathology: inflammatory changes ([3]; Study 2, Px500 group, minimal to occasionally slight degree): much less pronounced changes
- Plasma exposure at which complete inhibition of RSV shedding was observed ([4]; Px500 arm): 0.39 µg/mL
- Timing of peak viral shedding ([4]; Study 1, Px50, 3 out of 5 animals): delayed peak viral shedding from day 7 to day 9
- Peak log VL (Median) in BALF ([4]; Study 1, Px50, vehicle Vh1 8.15): 6.88 log10
- Δ log (Median): reduction in peak VL vs vehicle treated group, BALF ([4]; Study 1, Px50 vs Vh1): -1.06 log10
- Decrease in peak VL in BALF compared with the control group ([4]; Study 1, Tx50): 1.15 log10
- Peak log VL (Median) in BALF ([4]; Study 1, Tx50, vehicle Vh1 8.15): 7 log10 and 7.00 log10
- Δ log (Median): reduction in peak VL vs vehicle treated group, BALF ([4]; Study 1, Tx50 vs Vh1): -1.1 log10
- Peak log VL (Median) in BALF ([4]; Study 2, Px5, vehicle Vh2 5.17): 5.23 log10
- Δ log (Median): reduction in peak VL vs vehicle treated group, BALF ([4]; Study 2, Px5 vs Vh2): 0 log10
- Viral replication during the entire study ([4]; Study 2, Px500, except one animal with a viral blip at day 10): complete inhibition of viral replication
- Peak log VL (Median) in BALF ([4]; Study 2, Px500, vehicle Vh2 5.17): 0 log10
- VL in BAL 24h after the drug infusion was stopped ([4]; Study 2, one Px500 animal, day 10, below limit of detection at day 9 in presence of drug): 2 log
- Antiviral activity across dose groups ([4]; from 1log10 reduction of peak viral load to complete inhibition of RSV replication): dose-dependent antiviral activity
- Delay in peak viral shedding ([4]; prophylactic administrations (Px50, Px5)): 2 days
- Peak VL reduction ([4]; therapeutic (+1day postchallenge) or prophylactic administration at exposure levels 3- to 5-fold above the EC50c): 1 log10
- IL8 production in BALF, control vs treated animals [5]: no significant reduction in IL8 production
- Antiviral effect in treated compared with untreated groups ([6]; mice): 0.5–1 log
- Lung histopathology in mice [6]: improved lung histopathology
- Antiviral activity in rodent models of RSV infection [7]: significant antiviral activity

Compound: NC(=O)c1ncn([C@@H]2O[C@H](CO)[C@@H](O)[C@H]2O)n1 [ribavirin]
- EC50 [8]: 30 µM

Compound: palivizumab: humanized monoclonal antibody indicated for RSV prophylaxis in high-risk children
- Exposure level to achieve complete inhibition of the RSV shedding [9]: 40 µg/mL
- Exposure levels required to achieve 50% prophylactic effectiveness [10]: 37 to 72 µg/mL
